Assay results as given in patent US9546201B2, “MUC-1 cytoplasmic domain peptides as inhibitors of cancer” (DANA-FARBER CANCER INSTITUTE, INC., priority 2008, dated 2017).
Where no end group is shown, it is not given here. [ ]: non-standard residue; d: D form.

Assays:
ZR-75-1 cells = assay: In vitro cytotoxicity and combination assays (MTS, CombiTool combination index); type: cell-based, human
Protocol: FIGS. 15A-D. Effects of GO-203 in combination with different anti-cancer drugs. ZR-75-1 cells were exposed to the indicated concentrations of Cisplatin (FIG. 15A), Doxorubicin (FIG. 15B), rh-TNF-α (FIG. 15C) and Taxol (FIG. 15D) alone and in combination with GO-203. The treatment was sequential for Cisplatin, Doxorubicin and Taxol where cells were exposed to these agents for 72 h followed by treatment with 5 μM of GO-203 for 72 h. In studies with rh-TNF, cells were exposed concomitantly to different concentrations of rh-TNF alone and in combination with 5 μM of GO-203 for 72 h. The MTS assay was used to determine the cell survival. For all panels, the Y-axis represents percent growth as compared to control untreated cells.
FIG. 16. GO-203 is additive or synergistic with anti-cancer agents. The plots show combination indexes against different effect levels (fraction affected). The effect level was obtained by treating cells with the indicated combinations of anti-cancer drugs and GO-203. Y-axis represents—fold growth as compared to control untreated cells.
Cells were seeded in a 96-well flat-bottomed microtiter plate (Fisher) at 1000 cells per well for a 6-day experiment or at 3000 cells per well for a 3-day experiment. The cells were then cultured for 24 h. Anti-cancer drugs and GO-203 were diluted to the indicated concentrations and added to the cells. GO-203 (5 μmol/L) was added every 24 h for 72 h. Cell viability was determined by adding MTS reagent to the cells and reading the absorbance at 490 nm by a microplate reader.
The IC50 values for all the anti-cancer drugs were determined by non-linear regression analysis using Graphpad Prism (GraphPad Software, San Diego Calif.). The CombiTool computer program (version 2.001, IMB Jena Biocomputing Group) was used to calculate the combination index within a dose range in the presence of 5 μmol/L GO-203.
The combination index (CI) values generated by the CombiTool program were plotted against the fraction affected by the drug combination. The CI values were close to 1 for Cisplatin and GO-203, indicating an additive interaction. The CI values obtained for Doxorubicin (25, 50, 100, 200 nM), Taxol (25, 50, 100 nM) and TNF (10, 20, 40 ng/ml) with GO-203 were less than 1, supporting a strong additive effect or synergism (FIGS. 15A-D and 16).

[1] = system: ZR-75-1 breast carcinoma cells; assay: ZR-75-1 proliferation with GO-203 analogs (trypan blue exclusion); type: cell-based, human; conditions: 5 μM every day for 4 days
Protocol: FIG. 10. Effect of different MUC1-CD CQC-region peptides on the growth of hormone-dependent breast carcinoma cells. To determine whether exposure to different MUC1-CD CQC-region containing peptides affect growth, ZR-75-1 breast carcinoma cells were treated with 5 μM of different peptides for 4 days and monitored for cell proliferation. […] Y-axis represents percent growth inhibition as compared to control untreated cells.
FIG. 14. Effect of Shorter GO-203 peptides on proliferation of ZR-75-1 Breast Cancer Cells. Human ZR-75-1 breast cancer cells were grown in RPMI1640 supplemented with 10% heat-inactivated fetal bovine serum, 100 units/ml penicillin, 100 μg/ml streptomycin. Cells were treated with different peptides at 5 μM every day for four days and cell viability was determined by trypan blue exclusion.
Multiple tumor cell lines (ZR-75-1 Hormone-dependent Breast Carcinoma; MDA-MB-231 Triple-Negative Breast Carcinoma; A549 Non-small Cell Lung Carcinoma; H-1975 Non-small Cell Lung Carcinoma) were grown in RPMI-1640 supplemented with 10% heat-inactivated fetal bovine serum, 100 units/mL penicillin and 100 μg/mL streptomycin and 2 mmol/L L-glutamine. Cells were treated separately with 5 μM of different analogs of GO-203 (FIG. 8) for 3 to 7 days and viability was determined by trypan blue exclusion. The proliferation of different cell lines was compared with cells treated with vehicle only.

[2] = system: H-1975 non-small cell lung carcinoma cell line; conditions: 5 μM, 3 days
Protocol: H-1975 non-small cell lung carcinoma cell line was grown in DMEM with 10% heat-inactivated fetal bovine serum with 100 units/mL penicillin, 100 μg/ml streptomycin and 2 mmol/L L-glutamine. Cells were re-seeded one day before treatments. Cells were treated with 5 μM GO-200-2B for 3 days and cell viability was determined by trypan blue exclusion. Y-axis represents percent viability as compared to control untreated cells.
H1975 non-small cell lung carcinoma cells were treated with 5 μM of different MUC1-CD CQC-region peptides for 6 days. Viable cell number on day 6 was determined by trypan blue exclusion. […] Y-axis represents relative growth as compared to control untreated cells.
Moreover, another non-small cell lung carcinoma cell line, H-1975, was treated with 5 μM GO-200-2B for 3 days and monitored for cell growth as well as cell death.
Multiple tumor cell lines (ZR-75-1 Hormone-dependent Breast Carcinoma; MDA-MB-231 Triple-Negative Breast Carcinoma; A549 Non-small Cell Lung Carcinoma; H-1975 Non-small Cell Lung Carcinoma) were grown in RPMI-1640 supplemented with 10% heat-inactivated fetal bovine serum, 100 units/mL penicillin and 100 μg/mL streptomycin and 2 mmol/L L-glutamine. […] The proliferation of different cell lines was compared with cells treated with vehicle only.

[3] = system: DU145 prostate carcinoma cells; assay: DU145 cell growth by MTT assay; type: cell-based; conditions: 5 μM, 4 days (FIG. 7)
Protocol: FIG. 7. MUC1 7-mer inhibits prostate carcinoma. DU145 prostate carcinoma cells were treated with 5 μM CQC short (7-mer; SEQ ID NO: 53) or 5 μM CQC long (15-mer; SEQ ID NO: 63) peptides for 4 days. Cell growth was measured by MTT assay. The Y-axis represents percent growth inhibition compared to untreated cells (control).

[4] = system: multiple carcinoma cell lines; assay: Inventors' recent studies of MUC1 C-terminal peptides on carcinoma cell lines; type: cell-based; conditions: L-amino acid peptide
Description: However, these MUC1-C-terminal peptides consists of L-amino acids. […] Consequently, they have generated an all-dextro form of the above described shorter MUC1 C-terminal peptide, in which the L-amino acids were changed to D-amino acids (GO-203). Moreover, to determine the minimum amino acid residues from the MUC1-C-terminal region that are required to retain the cell killing activity, they have also generated many different versions of GO-203 as described in FIG. 8.

His-MUC1-CD = molecular target: T1, His-MUC1-CD (Homo sapiens, UniProt P15941); conditions: BIAcore analysis, Leng et al., 2007; read-out: dissociation constant (Kd) of MUC1-CD dimers; cited from earlier work
T1 sequence (P15941 1184-1255): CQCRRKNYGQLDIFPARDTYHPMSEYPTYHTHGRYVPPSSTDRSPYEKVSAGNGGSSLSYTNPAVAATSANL

With “GO-203: all-dextro form of the shorter MUC1 C-terminal peptide CQCRRKN (SEQ ID NO:53) ([dC][dQ][dC][dR][dR][dK][dN]; cysteine pairing not given here)” the “combination index (CI) with Cisplatin” value (ZR-75-1 cells; Cisplatin 72 h followed by 5 μM GO-203 for 72 h) was about 1, the “combination index (CI) with Doxorubicin” value (ZR-75-1 cells; Doxorubicin 25, 50, 100, 200 nM, followed by 5 μM GO-203) was “less than 1” and the “combination index (CI) with Taxol” value (ZR-75-1 cells; Taxol 25, 50, 100 nM, followed by 5 μM GO-203) was “less than 1”. For the same molecule, the “combination index (CI) with TNF” value (ZR-75-1 cells; rh-TNF 10, 20, 40 ng/ml concomitantly with 5 μM GO-203 for 72 h) was “less than 1” and the “growth of ZR-75-1 cells” value [1] was “significant inhibition of growth”.

In the case of “GO-209: shorter GO-203 peptide, SEQ ID NO:54 (CQCR)”, the “growth of ZR-75-1 cells” value [1] is reported as “significant inhibition of growth”.

With “GO-208: shorter GO-203 peptide, SEQ ID NO:50 (CQCRR)” the “growth of ZR-75-1 cells” value [1] was “significant inhibition of growth”.

In the case of CC(=O)N[C@@H](C)C(=O)N[C@@H](CCCCN)C(=O)N[C@@H](CCCCN)C(=O)N[C@@H](Cc1ccc(O)cc1)C(=O)N[C@@H](CC(C)C)C(=O)N[C@@]1(C)CCCC=CCCCC2(CCCC=CCCC[C@@](C)(C(=O)N[C@@H](CCCNC(=N)N)C(=O)N[C@@H](CCCCN)C(=O)N[C@@H](CC(N)=O)C(=O)N[C@@H](Cc3ccc(O)cc3)C(N)=O)NC(=O)[C@H](CS)NC(=O)[C@H](CCC(N)=O)NC(=O)[C@H](CS)NC2=O)NC(=O)[C@H](C)NC(=O)[C@H](CC(C)C)NC(=O)[C@H](C)NC1=O (stereo partly drawn) [GO-200-2B], the cell death [2] is reported as “significant induction of cell death”.

In the case of “GO-207: shorter GO-203 peptide, SEQ ID NO:4 (CQCRRK)”, the “growth of ZR-75-1 cells” value [1] is reported as “significant inhibition of growth”.

With “MUC1/CQC 7-mer: shorter MUC1-C-terminal peptide CQCRRKN of L-amino acids (7-mer; SEQ ID NO: 53)” the “in vitro activity relative to the 15-mer” value [3] was “as potent as the MUC1/CQC 15-mer” and the “killing of tumor cells” value [4] was “active in killing tumor cells”.

For “MUC1-CD: 72-amino acid MUC1 cytoplasmic domain (SEQ ID NO:1); forms dimers”, the Kd (His-MUC1-CD) is listed as 33 nM.
